According to patent US20140005163A1 (NOVARTIS AG, priority 2010, published 2014):

What was measured:
mTOR = target: T1, mTOR (Homo sapiens, UniProt P42345); assay: Biochemical assay for m-TOR by TR-FRET; details: 8 μM ATP, 400 nM GFP-4EBP1, 0.5 nM mTOR
T1 construct: purchased Invitrogen Corporation (Carlsbad/CA, USA) PV4753
Outline: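 TR-FRET detection of pThr46 on GFP-4EBP1 (400 nM final) using Tb3+-labelled antibody (0.5 nM), added with EDTA to stop reactions. Reactions ran at rt with 0.5 nM mTOR and 8 μM ATP (final) in HEPES pH 7.5 buffer containing 10 mM MnCl2.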

[1] = test system: PKB Ser473 phosphorylation in Rat1-myr-HA-p110 alpha cells; assay: Reverse protein array assay, PKB Ser473 phosphorylation in Rat1-myr-p110 alpha cells; assay type: cell-based; details: 0.5 h, pAkt Ser473, 30 minutes compound incubation, read-out: p-PKB IC50
Outline: (§1)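 Rat1 cells expressing myristoylated HA-tagged p110 alpha, beta or delta were plated for at least 20 h, then exposed to 8-step serial compound dilutions (0.2% DMSO final) for 30 min at 37 °C. Lysates were spotted at four dilutions on protein microarrays, and relative fluorescence intensity of phospho-Ser473 PKB was calculated.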

[2] = test system: PKB Ser473 phosphorylation in Rat1-myr-HA-p110 beta cells; assay: Reverse protein array assay, PKB Ser473 phosphorylation in Rat1-myr-p110 beta cells; assay type: cell-based; details: 0.5 h, pAkt Ser473, 30 minutes incubation, read-out: p-PKB IC50
Outline: as §1

[3] = test system: PKB Ser473 phosphorylation in Rat1-myr-HA-p110 delta cells; assay: Reverse protein array assay, PKB Ser473 phosphorylation in Rat1-myr-p110 delta cells; assay type: cell-based; details: read-out: p-PKB IC50
Outline: as §1

T1 sequence (P42345 1360-2549 limits assumed): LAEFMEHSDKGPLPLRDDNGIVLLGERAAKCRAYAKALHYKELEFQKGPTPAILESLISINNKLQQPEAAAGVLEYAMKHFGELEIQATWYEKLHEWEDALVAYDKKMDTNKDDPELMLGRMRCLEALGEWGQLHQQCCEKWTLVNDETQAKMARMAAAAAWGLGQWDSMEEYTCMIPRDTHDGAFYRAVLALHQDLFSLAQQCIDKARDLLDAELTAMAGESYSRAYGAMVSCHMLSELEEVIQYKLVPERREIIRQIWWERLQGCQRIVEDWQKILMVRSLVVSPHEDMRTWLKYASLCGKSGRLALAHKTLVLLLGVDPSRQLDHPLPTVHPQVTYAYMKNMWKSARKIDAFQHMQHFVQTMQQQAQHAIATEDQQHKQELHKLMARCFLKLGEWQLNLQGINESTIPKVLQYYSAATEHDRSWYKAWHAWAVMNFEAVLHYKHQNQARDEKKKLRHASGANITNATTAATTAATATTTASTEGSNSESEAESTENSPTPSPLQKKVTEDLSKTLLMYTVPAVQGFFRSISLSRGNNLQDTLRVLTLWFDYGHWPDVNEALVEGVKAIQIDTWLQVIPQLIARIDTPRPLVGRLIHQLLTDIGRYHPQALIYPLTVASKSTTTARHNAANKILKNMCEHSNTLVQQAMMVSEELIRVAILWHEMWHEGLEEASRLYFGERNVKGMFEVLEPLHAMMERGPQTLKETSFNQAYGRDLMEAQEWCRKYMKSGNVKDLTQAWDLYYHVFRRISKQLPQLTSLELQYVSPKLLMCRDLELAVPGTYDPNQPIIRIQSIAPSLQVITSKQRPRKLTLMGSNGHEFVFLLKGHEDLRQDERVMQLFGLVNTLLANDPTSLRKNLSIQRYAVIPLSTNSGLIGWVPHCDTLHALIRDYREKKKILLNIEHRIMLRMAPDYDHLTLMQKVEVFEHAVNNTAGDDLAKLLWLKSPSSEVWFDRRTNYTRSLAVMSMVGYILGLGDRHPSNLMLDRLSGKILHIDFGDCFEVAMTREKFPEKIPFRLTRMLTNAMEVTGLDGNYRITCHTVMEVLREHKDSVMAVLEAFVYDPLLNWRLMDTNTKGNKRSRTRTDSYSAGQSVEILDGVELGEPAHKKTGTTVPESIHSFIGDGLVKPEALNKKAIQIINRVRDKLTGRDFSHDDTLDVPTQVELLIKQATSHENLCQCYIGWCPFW

Structure (SMILES): COc1ccc(-c2ccc3ncc4c(c3n2)n(-c2cc(C)nn2C)c(=O)n4C)cc1OC [Example 253, 8-(3,4-Dimethoxy-phenyl)-1-(2,5-dimethyl-2H-pyrazol-3-yl)-3-methyl-1,3-dihydro-1,3,5,9-tetraaza-cyclopenta[a]naphthalen-2-one]
- IC50 (mTOR): 0.003 µM
- IC50 [1]: 0.018 µM
- IC50 [2]: 0.016 µM
- IC50 [3]: 0.044 µM
